What was measured:
[1] = tested on: internal anal pressure, patients with incontinence or constipation; experiment: NΩ-Nitro-L-arginine ointment in and around the anal canal, manometry before and after application; type: in vivo, human; settings: 1% ointment, twelve patients
Protocol: A 1% ointment was prepared by mixing […] of NΩ-Nitro-L-arginine (obtained from Fluka—part of the Sigma group) in 19.8 g of unguentum merk base.
The ointment was then applied in and around the anal canal of twelve patients and the interanal pressure measured by manometry (as discussed previously) before and shortly after application of the ointment.

[2] = tested on: patients with ileo-anal pouch and fecal incontinence; experiment: Randomised placebo controlled cross over trial of 10% phenylephrine cream in patients with ileo-anal pouch; type: in vivo, human
Protocol: A prospective randomised placebo controlled cross over trial was undertaken to evaluate the use of phenylephrine 10% topical cream (according to examples 2a and 3) for treatment of fecal incontinence in patients with ilco-anal pouch.
10 Patients are mainly troubled by nocturnal incontinence only, and 2 have both daytime and nocturnal incontinence.
Of the 10 completed studies, there were 7 women and 3 men, age range (34-67). Anorectal manometry was performed and laser doppler fowmetry on all patients. Incontinence score was determined. All these outcome measures were repeated after treatment with both trial creams (phenylephrine and placebo).

[3] = tested on: maximum resting anal pressure, patients with passive faecal incontinence; experiment: Patient group with passive faecal incontinence, intraanal 10% phenylephrine, manometry
[4] = tested on: resting anal sphincter pressure, human volunteers; experiment: Topical phenylephrine gel dose ranging in volunteers: resting anal sphincter pressure and anodermal blood flow; type: in vivo; settings: for rise in mean resting anal sphincter pressure (MRP): topical, twelve volunteers
Protocol: A composition of base gel had the following composition: carmellose sodium 6 g, polyethylene glycol 30 ml, methylhydroxybenzoate 150 mg, propylhydroxybenzoate 15 mg, made up to volume with distilled water (pH4).
Various amounts of phenylephrine was added at 5%, 10%, 20% and 30% w/w to form various compositions for dose ranging studies (FIG. 2).
Twelve human volunteers aged 21 to 53 (mean 35) were studied on 4 occasions. Measurements of resting anal sphincter pressure and anodermal blood flow (using a laser doppler flowmeter) were taken before and after topical application of increasing concentrations of phenylephrine gel according to example 3 (supplied by Slaco Pharma (UK) Ltd) to the anus. Readings were taken through the day after a single application in order to determine the duration of effect.

[5] = tested on: maximum resting anal pressure, single healthy volunteer; experiment: Dose response study in single volunteer, intraanal phenylephrine solution, manometry
[6] = tested on: maximum resting anal pressure, healthy volunteers; experiment: Healthy volunteer group, intraanal 10% phenylephrine, manometry; settings: 0.5 ml 10% (50 mg) intraanal
[7] = tested on: patients with idiopathic passive fecal incontinence; experiment: Randomised placebo controlled cross over trial of 10% phenylephrine cream in idiopathic passive fecal incontinence; type: in vivo, human
Protocol: A prospective randomised placebo controlled cross over trial was undertaken to evaluate the use of 10% phenylephrine topical cream (according to examples 3 and 4) for treatment of idiopathic passive fecal incontinence.
30 Patients completed the study. All patients were assessed by endoanal ultrasound as well as anorectal physiology (to determine maximum resting anal pressure) and laser doppler flowmetry prior to treatment. The latter two measurements are repeated after a 3 week trial of the active agent (phenylephrine 10%) and placebo ‘Incontinence scores’ are determined before and after each treatment.

anal resting pressure = experiment: Phenylephrine ointment applied to anal margin, anal manometry; type: in vivo, human; settings: ointment in yellow soft paraffin, up to approximately 500 mg 10% ointment (50 mg of phenylephrine)
Protocol: Preparations of commercially available ophthalmic 10% phenylephrine hydrochloride (Minims) solution were administered intraanally with the subject in the left lateral position.

[8] = tested on: minor incontinence after ileoanal anastomosis; settings: Surgery 1990; 107: p 311-315; cited from earlier work
[9] = topical 10% phenylephrine cream

NC(=NCCC[C@H](N)C(=O)O)N[N+](=O)[O-] [NΩ-Nitro-L-arginine]
effect on resting internal anal sphincter pressure (in words) [1]: increase the resting internal an1 sphincter pressure

CNC[C@H](O)c1cccc(O)c1 [phenylephrine]
patients with significant improvement of symptoms ([2]; 6/10 patients, phenylephrine 10% compared to placebo): 60% | improvement of incontinence scores (mean) ([2]; after phenylephrine 10%, 3% after placebo): 45% | increase in mean resting anal sphincter pressure compared to baseline ([2]; in the improved patients, after phenylephrine 10%, -8% on placebo, p<0.005): 29% | differences in anodermal blood flow ([2]; laser doppler flowmetry): No differences | patients with objective improvement (anal sphincter pressure) ([2]; of the 7 improved patients): 6 patients | patients with no improvement ([2]; phenylephrine 10% cream): 3/10 | mean subjective improvement in symptoms reported by patients ([2]; phenylephrine 10% cream, 14% after placebo, p<0.01): 83% | improvement of incontinence score, one patient ([2]; single patient without measurable pressure increase): 47% | subjective improvement, one patient ([2]; single patient, after phenylephrine compared to placebo): 75% | anal sphincter pressure, one patient ([2]; single patient, phenylephrine 10% cream): no measurable increase | patients with improvement of symptoms of incontinence (summary) [2, 9]: 7/10 | median maximum resting pressure after instillation ([3]; 0.5 ml 10% (50 mg) intraanal, ten patients, pre median 25, post range 20-80, 5.5 KPa, p=0.39): 55 cm H2O | patients demonstrating a rise in anal pressure ([3]; of ten patients, two showed a fall, one no change): Seven | rise in mean resting anal sphincter pressure (MRP) ([4]; 5% phenylephrine gel, p 0.04): 6% | duration of action of a single application (median) ([4]; 10% phenylephrine gel): 7 (range 6 to 8) hours | rise in mean resting anal sphincter pressure (MRP) ([4]; 10% phenylephrine gel, versus pre-treatment): 33% | post treatment MRP ([4]; 10% phenylephrine gel, pre-treatment 85±2, P<0.0001): 127±12 cmH2O | response of MRP at concentrations higher than 10% ([4]; higher concentrations of phenylephrine gel (20%, 30% w/w)): no additional response | changes in anodermal blood flow ([4]; laser doppler flowmeter, topical phenylephrine gel): No notable changes | increase in maximum resting pressure ([5]; 0.5 ml 0.1% (0.5 mg) intraanal): no significant increase | increase in maximum resting pressure ([5]; 0.5 ml 0.5% (2.5 mg) intraanal): no significant increase | increase in maximum resting pressure ([5]; 0.5 ml 1% (5 mg) intraanal): no significant increase | increase in maximum resting pressure ([5]; 0.5 ml 5% (25 mg) intraanal): no significant increase | resting pressure after instillation ([5]; 0.5 ml 10% (50 mg) into the anal canal, from 120 cm H2O before (12-21 KPa)): 210 cm H2O | time over which increase in resting anal pressure was evident (continuous recording) ([5]; 0.5 ml 10% (50 mg) intraanal): ≥ 25 min | resting anal pressure 13 hours later ([5]; 0.5 ml 10% (50 mg) intraanal, manometry repeated at 13 hours): returned to pre-treatment level | maximum resting pressure after application (median) ([6]; ten healthy volunteers, pre median 110, post range 120-210, 17.5 KPa, p<0.05): 180 cm H2O | time increased pressure was maintained (duration of the recording, median) ([6]; range 14-31 minutes): ≥ 23 min | mean resting pressure post phenylephrine ([7]; 10% phenylephrine, from 62 pre, no significant change): 58 cmH2O | incontinence score (mean) after treatment ([7]; 10% phenylephrine, improved from mean of 14): 10 | change in anodermal blood flow ([7]; laser doppler flowmetry, after 10% phenylephrine): no significant change | patients with significant subjective improvement of symptoms ([7]; three of 30 patients, 10% cream for 3 weeks, versus baseline and placebo): 10% | patients with subjective improvement of symptoms (summary) [7, 9]: 3/30 | effect of ointment applied to the anal margin (anal resting pressure): no effect

CCCC(CCC)C(=O)[O-].[Na+] [sodium valproate]
treatment of minor incontinence after ileoanal anastomosis [8]: useful

Reference: patent US7781444B2, “Pharmaceutical composition for treating fecal incontinence and anal itch” (S.L.A. Pharma AG, priority 1996, dated 2010)
